The text below walks through data of patent US20090286836A1, “Novel Compounds” (priority 2008, published 2009).

The target in test [1] is T1, human NK1 receptor (Homo sapiens, UniProt P25103). The experiment in a line: NK functional potency, FLIPR calcium release in U2OS cells (Substance P as ligand). The format is cell-based. Also on record: expressed in transfected cells; host or cells: human U2OS cells transiently transduced with recombinant BacMam virus. The note with it: BacMam human NK1, average of at least two determinations, read-out: NK1 pKi (functional potency, fpKi) (converted). The source says: Compounds of the invention were further characterised in a functional assay using FLIPR technology for the determination of their effect to inhibit the intracellular calcium release induced by interaction of NK receptors with its perspective ligands. Human U2OS cells transiently transduced with recombinant BacMam virus expressing human NK1, NK2 and NK3 receptors were used in the studies (see J. P. Condreay et al, Proc. Natl. Acad. Sci. USA 1999, 96(1): 127-132). Briefly, U2OS cells were harvested from tissue culture flasks, re-suspended to a cell density of 200-300K/ml and mixed with recombinant BacMam virus carrying NKR gene in a virus/cell ratio of 1% (v/v). 10K-15K cells/well were then seeded in 384-well Greiner bio-one plate in culture medium (DMEM with 10% FBS), incubated overnight in 5% CO2 at 37° C. After aspirating the medium, cells were loaded 18-24 hr later with cytoplasmic calcium indicator Fluo-4 Calcium 3 dye (Molecular Devices Co.) in 30 uL/well buffer (Hank's balanced salts with 20 mM Hepes) and incubated in CO2 at 37° C. for 60 minutes. 10 uL/well assay buffer (Hank's balanced salts with 20 mM Hepes) containing different concentrations of compounds were then added to the cells for 30 minutes incubation at 37° C. Finally, 10 uL/well of NKR ligands in assay buffer containing 0.1% BSA was added to the cells and fluorescence signal read on a FLIPR system. Substance P, NKA and NKB peptides were used as the ligands for NK1, NK2 and NK3 receptor, respectively. IC50 values of each compound were determined by an 11-point 3×-dilution inhibition curve. The potency each antagonist (fpKi) was calculated from pIC50 by the Cheng-Prusoff equation using EC50 of ligand determined in a separate experiment.
T1 sequence (P25103 whole entry): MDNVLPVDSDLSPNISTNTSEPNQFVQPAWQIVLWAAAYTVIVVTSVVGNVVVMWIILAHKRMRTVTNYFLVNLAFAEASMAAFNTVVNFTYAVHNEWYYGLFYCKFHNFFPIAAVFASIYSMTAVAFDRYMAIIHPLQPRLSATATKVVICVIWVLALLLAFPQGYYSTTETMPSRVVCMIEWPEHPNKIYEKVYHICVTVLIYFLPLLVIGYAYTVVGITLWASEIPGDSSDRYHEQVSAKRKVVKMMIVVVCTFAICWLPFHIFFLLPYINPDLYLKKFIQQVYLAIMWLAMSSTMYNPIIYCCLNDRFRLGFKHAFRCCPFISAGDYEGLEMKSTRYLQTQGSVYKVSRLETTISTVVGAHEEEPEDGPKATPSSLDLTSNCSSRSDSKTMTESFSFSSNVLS
The compounds of Example 11, Examples 2, 4 and 6 were tested in the NK functional potency assay.

For test [2], the system named is common marmosets. The test is described as follows: marmoset human threat test. Format: in vivo, common marmoset. To be noted: for No. jumps / No. postures: marmoset, oral, 1 h before test; for No. jumps: mean±SEM (n=4), index of locomotor activity; for No. postures: mean±SEM (n=7). Here is the method: For example the marmoset human threat test (Costall et al., 1988
The study utilised in house laboratory-bred male and female common marmosets over 2 years of age, weighing 300-500 g. The animals were caged in couples, in a housing room maintained at 25±1° C., 60% humidity and a 12 hour light/dark cycle (lights on at 0600, with 30 min simulated dawn and twilight). Testing was carried out with the animals situated in the home cage.
One hour before the test animals were treated orally with vehicle (0.5% HPMC) or test compound (1 ml/kg). After a wash-out period of at least three days, treatments were reassigned and the study was complete when all animals had received all treatments. Number of specific behavioural postures in response to the human threat and the number of jumps were analysed in this study. The postures recorded in the test were those described by Costall et al (1988). and the number of jumps from the back of the cage to the cage front provided an index of locomotor activity to assess potential for sedation or locomotor stimulation.
Results are expressed as mean±SEM (n=7). of number of postures and as a mean±SEM (n=4) of number of jumps. Data were subjected to one-way analysis of variance (ANOVA) followed by Dunnett's test, comparing each compound dose with vehicle treatment, using Statistica software (version 8.0) Statistically significant differences with respect to vehicle are indicated as *P<0.01.

The target of test [3] is T1, human NK1 receptor. The test is described as follows: NK1 filtration binding assay with [3H]-GR205171 on human NK1-CHO cell membranes. Also noted: expressed in transfected cells. The note with it: average of five independent experiments, [3H]-GR205171 radioligand, read-out: NK1 binding affinity pKi (converted). Here is the method:
The NK1 binding affinity of the compounds of the invention was determined using the following filtration binding assay using [^3H]-GR205171 as radioligand for human NK1 receptor stably expressed in CHO (Chinese Hamster Ovary) cells (see C. Griffante et al, Br. J. Pharmacol. 2006, 148, 39-45; H. M. Sarau et al, J. Pharmacol. Experimental Therapeutics 2000, 295(1), 373-381 and D. T. Beattie et al., Br. J. Pharmacol. 1995, 116, 3149-3157).
CHO cells stably expressing the human cloned neurokinin NK1 receptor were cultured in Dulbecco's Modified Eagle's Medium/F12 Ham (DMEM/F12Ham) supplemented with 10% foetal bovine serum and 2 mM L-glutamine. Cells were maintained in 5% CO2 in a humidified incubator at 37° C. […]
Binding assay was carried out in 96 deep well polypropylene plates (Whatman) in a volume of 400 μl consisted of 100 μl of incubation buffer (containing 50 mM HEPES, pH 7.4, 3 mM MnCl2, and 0.02% BSA), 4 μl of DMSO (total binding) or increasing concentrations of the compounds in the invention dissolved in DMSO (1 pM-1 μM final concentration), 100 μl of the radioligand [^3H]-GR205171 (0.2 nM final concentration) in incubation buffer and 200 μl of human NK1-CHO cell membranes suspension (4 μg/ml final) in incubation buffer. […] Filterplates were dried and retained radioactivity was counted in a Top Count (Perkin-Elmer). […]

Counter-ions that a name gives are not always drawn.

For `Cc1cc(F)ccc1-c1cc([C@H]2CC[C@](C)(C(N)=O)N2)ncc1N(C)C(=O)C(C)(C)c1cc(C(F)(F)F)cc(C(F)(F)F)c1` [Example 11, (5R)-5-[5-[{2-[3,5-bis(trifluoromethyl)phenyl]-2-methylpropanoyl}(methyl)amino]-4-(4-fluoro-2-methylphenyl)-2-pyridinyl]-2-methyl-D-prolinamide bis-hydrochloride], the figures for the Ki in test [1] and in test [3] were 0.0794 nM and 0.132 nM, respectively. In test [2] (marmoset, 0.1, 0.3 or 1 mg/kg oral, significant at 0.3 and 1 mg/kg (P<0.01), no reduction in number of jumps), the “effect on number of postures (anxiolytic effect)” value was “dose dependent reduction in the number of postures”. Also, the values for the No. jumps in test [2] (0.1 mg/kg), in test [2] (0.3 mg/kg) and in test [2] (1 mg/kg) were 20.1 ± 2.1, 13.4 ± 2.5 and 13.0 ± 2.1, respectively. The No. postures is 9.4 ± 1.0 in test [2] (0.1 mg/kg); “*6.3 ± 0.9” in test [2] (0.3 mg/kg, *P<0.01 vs vehicle); “*4.0 ± 0.4” in test [2] (1 mg/kg, *P<0.01 vs vehicle).
